Values quoted from earlier work in publication PMC8679839, “Interleukin‐2‐inducible T‐cell kinase (Itk) signaling regulates potent noncanonical regulatory T cells” (Clinical and Translational Medicine, 2021).

System: Tregs
Text: Tregs are critical for the maintenance of tolerance, and transfer of Treg cells can ameliorate GVHD by restoring defective tolerance mechanisms.[41] One of the biggest challenges is to isolate functional Tregs in large numbers for immunotherapy.[42] This challenge is due to the low number of Tregs in peripheral blood.[4] Given their low numbers in the blood, it is difficult to obtain enough Tregs in the clinic for use as a therapy. If the number of collected canTregs and ncTregs could be increased for use in GVHD patients, such patients could be better protected from GVHD and other autoimmune ...

Structure (SMILES): CO[C@H]1C[C@@H]2CC[C@@H](C)[C@@](O)(O2)C(=O)C(=O)N2CCCC[C@H]2C(=O)O[C@H]([C@H](C)C[C@@H]2CC[C@@H](O)[C@H](OC)C2)CC(=O)[C@H](C)/C=C(\C)[C@@H](O)[C@@H](OC)C(=O)[C@H](C)C[C@H](C)/C=C/C=C/C=C/1C [rapamycin]
- Treg number after in vitro expansion: increases Tregs
- Treg suppressive function after in vitro expansion: reduces suppressive function
